Where a name gives a salt, the structure may show the parent alone. Read-outs that look alike come from different tables or passages of the source. Where only a bound is given, the exact number is not on record here.

Data set [1] addresses T1, hTAAR1 (Homo sapiens, UniProt Q96RJ0).
T1 construct: expressed in transfected cells; host or cells: HEK-293T (ATCC)
T1 sequence (Q96RJ0 1-339): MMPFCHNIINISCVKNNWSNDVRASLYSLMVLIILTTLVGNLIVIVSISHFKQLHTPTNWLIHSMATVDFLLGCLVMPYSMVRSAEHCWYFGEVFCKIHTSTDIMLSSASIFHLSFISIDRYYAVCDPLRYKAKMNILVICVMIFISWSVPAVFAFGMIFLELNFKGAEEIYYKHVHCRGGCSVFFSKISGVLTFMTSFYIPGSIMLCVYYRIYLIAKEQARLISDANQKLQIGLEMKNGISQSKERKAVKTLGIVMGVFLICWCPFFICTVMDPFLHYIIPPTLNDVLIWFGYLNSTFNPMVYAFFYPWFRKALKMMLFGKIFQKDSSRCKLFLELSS

Data set [2] has as its system mTAAR1. On the set-up: method as in PMID 27823885, PMID 29407948. As to conditions: Figure 2, biguanides SET1 and SET2; cited from earlier work.
The target in data set [3] is T1, hTAAR1. Kind of data set: Functional activity at hTAAR1, cAMP BRET biosensor in HEK-293T cells. The format is cell-based. To be noted: for Emax at 10 µM: HEK-293T, read-out: hTAAR1 Activity. The method, then: The activity of the compounds was measured using human embryonic kidney 293 (HEK-293T) cells co-transfected with plasmids encoding hTAAR1 and a cAMP Bioluminescence Resonance Energy Transfer (BRET) biosensor, or empty vector as a control. TYR was used as a positive control for agonism. Firstly, all the compounds were tested at 10 μM either for agonistic or antagonistic activity.
BRET screening was described in detail elsewhere. HEK-293T (ATCC) cells were transiently сo-transfected with plasmids encoding hTAAR1 and a cAMP BRET biosensor using Lipofectamine® (ThermoFisher) reagent, and then plated in 96-well plates (Corning) at […] per well. On the following day, culture medium was removed and 70 μL of phosphate-buffered saline containing calcium and magnesium was added to each well, followed by the addition of 10 μL […] 3-isobutyl-1-methylxanthine solution (Sigma), and 10 μL 50 μM coelenterazine-h solution (Promega). All tested compounds were dissolved in DMSO to yield 10 mM stock solutions. After 10 min incubation, either 10 μL of vehicle or 10× of the concentrated solution of compound to be tested (10 μM final concentration) was added. Readings were collected using a Mithras LB943 multimodal plate reader (Berthold Technologies). The BRET signal is determined by calculating the ratio of the light emitted at 505 to 555 nm to the light emitted at 465 to 505 nm.
Curves were fitted by applying non-linear regression models on GraphPad Prism 6 (GraphPad Software).

Data set [4] is described as follows: Cell cytotoxicity assay (MTT) on Vero-76 cells. In kind it is cell-based, Cercopithecus Aethiops. To be noted: Cercopithecus aethiops (African green monkey), Vero-76 cells; MTT method, 48–96 h; CC50±SEM. The method, then:
(§1) Vero-76 cells (ATCC CRL 1587 Cercopithecus Aethiops) were seeded at an initial density of 4 × 10^5 cells/mL in 24-well plates, in culture medium (Dulbecco’s Modified Eagle Medium (D-MEM) with L-glutamine, supplemented with fetal bovine serum (FBS), 0.025 g/L kanamycin). Cell cultures were then incubated at 37 °C in a humidified, 5% CO2 atmosphere in the absence or presence of serial dilutions of test compounds. Cell viability was determined after 48–96 h at 37 °C by the MTT staining method. The results are expressed as CC50, which is the concentration of compound necessary to inhibit cell growth by 50%. Each CC50 value is the mean and standard deviation of at least three separate experiments performed in duplicate.

In data set [5] the test system is Vero-76 cells. Kind of data set: Cell cytotoxicity assay (MTT) on Vero-76 cells. The format is cell-based, Cercopithecus Aethiops. To be noted: ratio of Vero-76 CC50 to hTAAR1 EC50. The method, then: as §1
On the set-up of data set [6]: method as in PMID 5719030. To be noted: potentiating pressor effect of tyramine and NE; cited from earlier work.
Setting [7] is: Figure 2, biguanides SET1 and SET2; cited from earlier work.
Setting [8] is: Figure 2, biguanides SET1 and SET2; read-out: hTAAR1 EC50; cited from earlier work.
The mark [9] stands for this setting: hTAAR1, amidines of this paper, from EC50, read-out: pEC50 (converted).
[10] abbreviates: dose–response 10 nM to 10 μM, means of 4 experiments, errors within 10%, read-out: hTAAR1 EC50.
Where [11] appears, read: as compared with 1 µM TYR (full agonism), compounds tested at 10 μM.

Take `N=C(N)N1CCN(c2cccc(C(F)(F)F)c2)CC1` (as salt: hydrochloride) [Compound 9, 4-[(3-Trifluoromethyl)phenyl]piperazine-1-carboximidamide hydrochloride]: the melting point was 170 to 173 °C.

`CCc1[nH]nc(C(=O)Nc2ccc([C@H]3CNCCO3)cc2)c1C` [(4-Aminophenyl)morpholino derivative]: the hTAAR1 efficacy in data set [1] (partial agonist; cited from earlier work) is 42%.

With `NC(N)=NC(N)=Nc1ccccc1Cl` [BIG2], in data set [2], the EC50 is 410 nM.

As for `NC(N)=NC(N)=Nc1ccc(Cl)cc1` [BIG4], the “hTAAR1 EC50” value in data set [1] (setting [7]) is “inactive”. In addition, the EC50 in data set [1] (read-out: hTAAR1 EC50; Figure 2, biguanides SET1 and SET2; cited from earlier work) is greater than 10000 nM; in data set [2], 2100 nM.

For `Cc1ccc(NC(=N)N=C(N)N)cc1` [BIG8], the “hTAAR1 EC50” value in data set [1] (setting [7]) is “inactive”. Besides, the EC50 in data set [1] (setting [8]) was greater than 10000 nM; in data set [2], 1700 nM.

On to `COc1ccc(N=C(N)N=C(N)N)cc1` [BIG9], for which, in data set [1] (setting [7]), the “hTAAR1 EC50” value was “inactive”. The “mTAAR1 EC50” value in data set [2] was “inactive”.

For the molecule `N=C(N)NC(=N)NCc1ccccc1` [BIG10, 1-benzylbiguanide], the EC50 is greater than 10000 nM in data set [1] (setting [8]) and 780 nM in data set [2].

Turning to `NC(N)=NC(N)=NCc1cccc(Cl)c1` [BIG12], the EC50 in data set [2] was 97 nM.

`NC(N)=NC(N)=NCc1ccc(Cl)c(Cl)c1` [BIG14]: the EC50 in data set [2] is 36 nM.

For the molecule `COc1ccc(CN=C(N)N=C(N)N)cc1` [BIG17], the “hTAAR1 EC50” value in data set [1] (setting [7]) is “inactive”. The “mTAAR1 EC50” value in data set [2] was “inactive”.

With `N=C(N)N=C(N)N1CCN(c2ccccc2)CC1` [Compound 1a, 1-phenyl-4-biguanylpiperazine], the EC50 in data set [2] was 2380 nM.

As for `Cc1ccccc1N1CCN(C(=N)N)CC1.Cl` [Compound 2, 4-(o-Tolyl)piperazine-1-carboximidamide hydrochloride], the melting point lay in the range of 159 to 162 °C. Moreover, the Emax at 10 µM in data set [3] was 100%. Besides, the EC50 in data set [3] (setting [9]) was 30.2 nM. Further, the CC50 in data set [4] was 80000 ± 5000 nM. For the same molecule, in data set [5], the “Therapeutic index (CC50/EC50)” value is given as 2667.

`Cl.N=C(N)N1CCN(c2ccccc2Cl)CC1` [Compound 3, 4-(2-Chlorophenyl)piperazine-1-carboximidamide hydrochloride]: the Emax at 10 µM in data set [3] stood at 90%. Besides, the EC50 in data set [3] (setting [10]) worked out at 160 nM. The CC50 in data set [4] was greater than 100000 nM. In addition, the “Therapeutic index (CC50/EC50)” value in data set [5] came out at 625.

Regarding `N=C(N)N=C(N)N1CCN(c2ccccc2Cl)CC1` [Compound 3a], the EC50 in data set [2] is 2660 nM.

Turning to `Cl.N=C(N)N1CCN(c2ccc(Cl)cc2)CC1` [Compound 5, 4-(4-Chlorophenyl)piperazine-1-carboximidamide hydrochloride], the “hTAAR1 Activity” value in data set [3] (setting [11]) is “inactive”. Further, the cytotoxic concentration (CC50) in data set [4] amounted to 95000 ± 3000 nM. For the same molecule, the sympathomimetic effect result in data set [6] was “a rise in the blood pressure”.

Take `COc1ccccc1N1CCN(C(=N)N)CC1.Cl` [Compound 6, 4-(2-Methoxyphenyl)piperazine-1-carboximidamide hydrochloride]: the Emax at 10 µM in data set [3] amounted to 64%. The EC50 in data set [3] (setting [10]) came out at 93 nM. The CC50 in data set [4] was 83000 ± 5000 nM. The “Therapeutic index (CC50/EC50)” value in data set [5] is 892.

Consider `COc1cccc(N2CCN(C(=N)N)CC2)c1.Cl` [Compound 7, 4-(3-Methoxyphenyl)piperazine-1-carboximidamide hydrochloride], for which the Emax at 10 µM in data set [3] turned out to be 32%. Moreover, the EC50 in data set [3] (setting [10]) was found to be 244 nM. Further, the half-maximal cytotoxic concentration (CC50) in data set [4] is 87000 ± 4000 nM. For the same molecule, the “Therapeutic index (CC50/EC50)” value in data set [5] was found to be 357.

With `COc1ccc(N2CCN(C(=N)N)CC2)cc1.Cl` [Compound 8, 4-(4-Methoxyphenyl)piperazine-1-carboximidamide hydrochloride], in data set [3] (setting [11]), the “hTAAR1 Activity” value is “inactive”. The CC50 in data set [4] came out at 88000 ± 2000 nM.

With `COc1ccc(N2CCN(C(N)=NC(=N)N)CC2)cc1` [Compound 8a], in data set [2], the “mTAAR1 EC50” value was “inactive”.

With `N=C(N)N1CCN(c2cccc(C(F)(F)F)c2)CC1` [Compound 9, 4-[(3-Trifluoromethyl)phenyl]piperazine-1-carboximidamide hydrochloride], in data set [3] (setting [11]), the Emax at 10 µM is 80%. Besides, the EC50 in data set [3] (setting [10]) is 64 nM. In data set [4], this molecule returned a 50% cytotoxic concentration (CC50) greater than 100000 nM. The “Therapeutic index (CC50/EC50)” value in data set [5] is 1562.

Regarding `Cl.N=C(N)N1CCN(c2ccccn2)CC1` [Compound 10, 4-(Pyridin-2-yl)Piperazine-1-Carboximidamide Hydrochloride], the melting point was in the range of 205 to 208 °C. Moreover, the Emax at 10 µM in data set [3] stood at 30%. Besides, in data set [3] (setting [10]), the EC50 is greater than 2000 nM. For the same molecule, in data set [4], the CC50 is 74000 ± 5000 nM. Moreover, the “Therapeutic index (CC50/EC50)” value in data set [5] stood at 37.

Regarding `N=C(N)N=C(N)N1CCN(c2ncccn2)CC1` [Compound 10a], the “hTAAR1 EC50” value in data set [1] (setting [7]) was “inactive”. Besides, the EC50 in data set [2] is 9000 nM.

`Cl.N=C(N)N1CCN(c2ncccn2)CC1` [Compound 11, 4-(Pyrimidin-2-yl)piperazine-1-carboximidamide hydrochloride]: the “hTAAR1 Activity” value in data set [3] (setting [11]) was “inactive”. The molecule also yielded a cytotoxic concentration (CC50) in data set [4] of 64000 ± 2000 nM.

For `Cl.N#Cc1ccccc1N1CCN(C(=N)N)CC1` [Compound 12, 4-(2-Cyanophenyl)piperazine-1-carboximidamide hydrochloride], the melting point was in the range of 236 to 238 °C. The “hTAAR1 Activity” value in data set [3] (setting [11]) is “inactive”. This molecule had a 50% cytotoxic concentration (CC50) in data set [4] of 78000 ± 2000 nM.

In the case of `Cl.N=C(N)N1CCN(c2ccccc2F)CC1` [Compound 13, 4-(2-Fluorophenyl)piperazine-1-carboximidamide hydrochloride], the melting point lay within 145 to 148 °C. Further, the “hTAAR1 Activity” value in data set [3] (setting [11]) is “inactive”. Besides, it took 87000 ± 5000 nM to reach half-maximal cytotoxicity in data set [4] (CC50).

On to `Cl.N=C(N)N1CCN(c2ccc(F)cc2)CC1` [Compound 14, 4-(4-Fluorophenyl)piperazine-1-carboximidamide hydrochloride], for which the “hTAAR1 Activity” value in data set [3] (setting [11]) is “inactive”. The molecule also had a 50% cytotoxic concentration (CC50) in data set [4] of 94000 ± 6000 nM.

On to `Cl.N=C(N)N1CCN(c2cccc(Cl)c2Cl)CC1` [Compound 15, 4-(2,3-Dichlorophenyl)piperazine-1-carboximidamide hydrochloride], for which the Emax at 10 µM in data set [3] was determined as 81%. Also, the EC50 in data set [3] (setting [9]) was 20 nM. In data set [4], this molecule came in with a half-maximal cytotoxic concentration (CC50) of 82000 ± 5000 nM. The “Therapeutic index (CC50/EC50)” value in data set [5] is listed as 4100.

`Cl.N=C(N)N1CCN(c2ccc(Cl)c(Cl)c2)CC1` [Compound 16, 4-(3,4-Dichlorophenyl)piperazine-1-carboximidamide hydrochloride] came in with a melting point of 235 to 237 °C. Moreover, the Emax at 10 µM in data set [3] worked out at 49%. For the same molecule, in data set [3] (setting [10]), the EC50 is 71 nM. Moreover, it took 89000 ± 4000 nM to reach half-maximal cytotoxicity in data set [4] (CC50). The “Therapeutic index (CC50/EC50)” value in data set [5] is 1254.

Take `NC1=N[C@H](c2ccc(Br)cc2)CO1` [Compound 27b]: the pEC50 in data set [1] (2-aminooxazolines reported by Roche, Table S1; cited from earlier work) was 5.00 M.

Turning to `NCCc1ccc(O)cc1` [TYR, tyramine, reference compound], the “hTAAR1 Activity” value in data set [3] (setting [11]) came to 100%. For the same molecule, the EC50 in data set [3] (setting [10]) came to 66 nM.

Take `NCCc1ccccc1` [β-PEA, β-phenylethylamine]: the pEC50 in data set [1] (hTAAR1; endogenous agonist, no reference given; cited from earlier work) was 6.70 M.

Values taken from PMC7697893, “Novel 1-Amidino-4-Phenylpiperazines as Potent Agonists at Human TAAR1 Receptor: Rational Design, Synthesis, Biological Evaluation and Molecular Docking Studies” (Pharmaceuticals, 2020).
